Absorption maximum data for 42 compounds are collected here from the Deep4Chem optical property database.

Molecules are shown by their SMILES.

This series is described as follows: solvent given as SMILES.

Compound `Cn1c(-c2ccc(-c3nc(-c4ccccc4)c(-c4ccccc4)n3C)s2)nc(-c2ccccc2)c1-c1ccccc1` registered an absorption maximum (in CC#N) of 391 nm.

`CCC1(CC)c2cc(Br)ccc2-c2c1c1c(c3c2C(CC)(CC)c2cc(-c4cccs4)ccc2-3)C(CC)(CC)c2cc(Br)ccc2-1`: the absorption maximum (in C1CCOC1) is 336 nm.

For `Cc1cc(C2=C(c3cc(C)sc3C)S(=O)(=O)c3ccccc32)c(C)s1`, the absorption maximum (in C1CCOC1) came to 349 nm.

In the case of `O=c1c2cccc3cccc(c32)c2nc3cccc4cccc(c43)n12`, where the note is “in ClCCl”, the absorption maximum is 475 nm.

Turning to `CC1(C)c2ccccc2N(c2ccc3c(c2)c2cc(N4c5ccccc5C(C)(C)c5ccccc54)ccc2c2nc4ccccc4nc32)c2ccccc21`, the absorption maximum (in Cc1ccccc1) is on record as 380 nm.

Take `C(=C(c1ccccc1)c1ccccc1)c1ccc(-c2cc(-c3ccc(C=C(c4ccccc4)c4ccccc4)cc3)cc(-c3ccc(C=C(c4ccccc4)c4ccccc4)cc3)c2)cc1`: the absorption maximum (in C1CCOC1) worked out at 333 nm.

For the setting “in Cc1ccccc1”, `CCCCCCc1ccc(-n2c3c(c4c2c2c(n4-c4ccc(CCCCCC)cc4)-c4cccc(OC)c4NB2c2ccccc2)B(c2ccccc2)Nc2c(OC)cccc2-3)cc1` had an absorption maximum of 382 nm.

Consider `C(=C(c1ccccc1)c1ccccc1)c1ccc(C=C(c2ccccc2)c2ccccc2)cc1`, for which the absorption maximum (in C1CCOC1) was 352 nm.

Regarding `CC1=C2C=CC=[N+]2[B-](F)(F)n2cccc21`, the absorption maximum by setting is: (in CCCCCC) 500 nm; (in CO) 494 nm; (in ClCCl) 499 nm.

As for `O=C1c2cccc3c(NCc4ccccn4)c4ccccc4c(c23)C(=O)N1Cc1ccccn1`, the absorption maximum runs as follows: (in C1CCOC1) 520 nm; (in CCCCCC) 497 nm; (in CCO) 533 nm; (in Cc1ccccc1) 517 nm; (in ClCCl) 527 nm.

As for `CC(C)[Si]1(C(C)C)c2cc(C=O)ccc2-c2ccc(N(C)C)cc21`, the absorption maximum was found to be 390 nm (in C1CCCCC1); 391 nm (in CC#N); 395 nm (in CCO); 384 nm (in CCOCC); 400 nm (in CS(C)=O); 397 nm (in ClCCl). Under “in c1ccccc1”, this compound registered an absorption maximum of 392 nm.

`C(=C\c1nc(/C=C/c2ccc(-n3c4ccccc4c4ccccc43)cc2)nc(/C=C/c2ccc(-n3c4ccccc4c4ccccc43)cc2)n1)/c1ccc(-n2c3ccccc3c3ccccc32)cc1`: the absorption maximum (in C1CCOC1) amounted to 381 nm, the absorption maximum (in CC#N) is 376 nm, the absorption maximum (in Cc1ccccc1) is reported as 389 nm and the absorption maximum (in ClCCl) amounted to 383 nm.

Where the note is “in ClC(Cl)Cl”, `Cc1ccccc1C1CC(=O)Oc2c1c1nc3ccccc3nc1c1ccccc21` (centres undefined) displayed an absorption maximum of 410 nm.

For `COc1ccc2n1[B-](F)(F)[N+]1=C(SC#N)C=CC1=C2c1ccccc1`, the absorption maximum is, setting by setting: (in CC#N) 474 nm; (in CCCCCC) 517 nm; (in CCOC(C)=O) 506 nm; (in CO) 480 nm; (in ClCCl) 508 nm.

On to `Cc1nc(-c2cc(F)ccc2O)n2c1CCCC2`, for which the absorption maximum (in ClCCl) is 326 nm.

With `C#Cc1ccc2ccc3oc(=O)cc(C)c3c2c1`, the absorption maximum (in CCO) stood at 362 nm.

`CCOC(=O)c1ccc(C2CC(c3cccc4ccccc34)=NN2c2ccc(Cl)cc2)cc1` (centres undefined) registered an absorption maximum (in ClCCl) of 378 nm.

For `c1ccc(-c2nc(-c3ccccn3)[se]c2N(c2ccccc2)c2ccccc2)cc1`, the absorption maximum (in ClC(Cl)Cl) turned out to be 406 nm.

As for `Cc1sc(-c2ccc(-c3nc(-c4ccccc4)c(-c4ccccc4)[nH]3)cc2)c(C)c1C1=C(c2c(C)n(C)c3ccccc23)C(F)(F)C(F)(F)C1(F)F`, the absorption maximum (in C1CCOC1) came to 313 nm.

As for `COc1ccc(-c2nc(-c3cc([N+](=O)[O-])ccc3O)[nH]c2-c2ccc(OC)cc2)cc1`, the absorption maximum (in CO) is given as 260 nm.

As for `CC(C)(C)c1ccc(N2c3ccc(C(C)(C)C)cc3B3c4cc(C(C)(C)C)ccc4N(c4ccc(C(C)(C)C)cc4)c4cc(-n5c6ccc(C(C)(C)C)cc6c6cc(C(C)(C)C)ccc65)cc2c43)cc1`, the absorption maximum (in Cc1ccccc1) came out at 451 nm.

As to `Cc1c(C(=O)c2c(F)cc(F)cc2F)c2ccc3cccc4c5cccc6ccc1c(c65)c2c34`, under “in ClCCl”, the absorption maximum came to 390 nm.

With `CC(=O)c1ccn2c3c(c(-c4cc[n+](C)cc4)c2c1)CN(C)C3=O`, the absorption maximum (in O) amounted to 429 nm.

As for `CC1=c2c3c4cccc5cccc(c=3c(C)[n+]2[B-](F)(F)n2c(C)c3c(c21)-c1cccc2cccc-3c12)c54`, the absorption maximum (in ClC(Cl)Cl) came to 657 nm.

In the case of `CC/[NH+]=c1\cc2oc3cc(NCCC(=O)NC(C(=O)OC)C(C)C)c4ccccc4c3nc-2cc1C` (centres undefined), the absorption maximum turned out to be 590 nm (in CCO) and 580 nm (in O).

As to `COc1ccc(C2=C/C(=C\c3ccccc3)C(=O)N2)cc1OC`, the absorption maximum (in C1COCCO1) was determined as 431 nm.

As to `CCC(CC)c1ccc2cc3c([o+]c2c1)/C(=C/Cc1ccccc1)CCC3`, the absorption maximum is 604 nm (in CCO), 616 nm (in ClC(Cl)Cl) and 615 nm (in ClCCl).

As for `O=C1c2cc3ccccc3cc2C2=Nc3cccc[n+]3[B-](F)(F)N12`, where the note is “in ClCCl”, the absorption maximum is reported as 396 nm.

The compound `CN(C)c1ccc(/C=C/C=C2\CCCC2=O)cc1` had an absorption maximum (in CC#N) of 409 nm; an absorption maximum (in CC(C)=O) of 416 nm; an absorption maximum (in CC(C)O) of 420 nm; an absorption maximum (in CCCCCC) of 394 nm; an absorption maximum (in CCCCO) of 425 nm; an absorption maximum (in CCCO) of 422 nm. Moreover, the absorption maximum is, setting by setting: (in CCO) 422 nm; (in CCOC(C)=O) 408 nm; (in CCOCC) 399 nm; (in CN(C)C=O) 408 nm; (in CO) 420 nm; (in CS(C)=O) 416 nm. Further, the absorption maximum runs as follows: (in Cc1ccccc1) 409 nm; (in ClC(Cl)(Cl)Cl) 407 nm; (in ClC(Cl)Cl) 404 nm; (in ClCCl) 420 nm; (in c1ccccc1) 411 nm; (in c1ccncc1) 419 nm.

As to `COC(=O)c1ccc(C2=C3C=c4sc(-c5cccs5)cc4=[N+]3[B-](F)(F)n3c2cc2sc(-c4cccs4)cc23)cc1`, the absorption maximum (in ClCCl) turned out to be 684 nm.

As to `Clc1nc(Cl)nc(Nc2ccc3ccc4cccc5ccc2c3c45)n1`, the absorption maximum was found to be 341 nm (in CC#N), 341 nm (in CCCCOCCCC) and 340 nm (in CO).

The compound `NCCCCCCCCCCCCN1C(=O)c2ccc3c4ccc5c6c(ccc(c7ccc(c2c37)C1=O)c64)C(=O)N(CCCCCCCCCCCCN)C5=O` showed an absorption maximum (in CN(C)C=O) of 523 nm.

Consider `Oc1ccccc1-c1nc2c3ccccc3c3ccccc3c2o1`, for which, for the setting “in Cc1ccccc1”, the absorption maximum came out at 364 nm.

Turning to `CCN(CC)c1ccc2cc(/C=C/C(O)=C3\CC/C(=C\c4cc5ccc(N(CC)CC)cc5oc4=O)C3=O)c(=O)oc2c1`, the absorption maximum (in C1COCCO1) came out at 513 nm; the absorption maximum (in CC#N) is 532 nm; the absorption maximum (in CC(C)=O) came out at 526 nm; the absorption maximum (in CCOC(C)=O) was found to be 516 nm; the absorption maximum (in CN(C)C=O) amounted to 546 nm; the absorption maximum (in CS(C)=O) was determined as 556 nm. In addition, the absorption maximum was found to be 511 nm (in Cc1ccccc1) and 525 nm (in ClC(Cl)Cl).

Consider `CCCCCCCCOc1ccc(-c2c3c4n(c(-c5ccc(OCCCCCCCC)cc5)c3c3n2[B-](F)(F)[n+]2c(sc5ccccc52)N=3)[B-](F)(F)[n+]2c(sc3ccccc32)N=4)cc1`, for which the absorption maximum (in ClC(Cl)Cl) was 655 nm.

For `COc1cc(OC)cc(C2=CC(c3ccccc3)=C(c3ccccc3)C2)c1`, for the setting “in ClCCl”, the absorption maximum turned out to be 355 nm.

In the case of `CC(C)(C)c1ccc(-c2nc3c4ccccc4c4ccccc4c3n2-c2ccc(-c3ccc(N(c4ccccc4)c4ccccc4)cc3)cc2)cc1`, for the setting “in ClCCl”, the absorption maximum was 332 nm.

`COc1ccc(-c2ccccc2)cc1` had an absorption maximum (in C1CCCCC1) of 265.82 nm.

On to `CC1=CC(C)=[N+]2C1=C(c1c3ccccc3cc3ccccc13)c1c(C)cc(C)n1[B-]2(F)F`, for which the absorption maximum was 502 nm (in CC#N); 504 nm (in CCCCCC); 505 nm (in CCO); 505 nm (in CN(C)C=O); 508 nm (in Cc1ccccc1); 506 nm (in ClCCl).

Regarding `Cc1cc(O)c(C(=O)/C=C/c2ccc(O)c(O)c2)c(=O)o1`, the absorption maximum by setting is: (in CC#N) 390 nm; (in ClCCl) 387 nm.

In the case of `CCCCOc1ccc2cc(-c3ccc(C)cc3)c(=O)oc2c1`, the absorption maximum runs as follows: (in C1CCOC1) 343 nm; (in CCCCCC) 338 nm; (in CCO) 344 nm; (in CS(C)=O) 346 nm.

Where the note is “in CO”, `Cc1ccc2nnn(-c3c(C#N)c4c(N)ncnc4n3[C@H]3C[C@H](O)[C@@H](CO)O3)c2c1` came in with an absorption maximum of 278 nm.
